Test results from patent publication US20080004290A1, “Anti-Cancer Agents” (THE UNIVERSITY OF QUEENSLAND, priority 2003, published 2008).
Read-outs that look alike come from different tables or passages of the source.

Legend:
Assay type in all cases: cell-based, human
[1] = test system: NFF, neonatal foreskin fibroblasts; test: Cell survival assay (clonogenic survival, SRB), normal cells; conditions: Homo sapiens, Fibroblast
How it was run: (§1)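 Cells (5×10^3/well, RPMI 1640 with 10% FCS) treated 24 h with compound at 0.01-10 μg/mL, then washed and grown 72 h drug-free at 37 °C, 5% CO2. Survival read by SRB staining after methylated-spirit fixation, absorbance 564 nm.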

MM96L melanoma cells = test: Cell survival assay (clonogenic survival, SRB); conditions: for IC50: Homo sapiens, MM96L
How it was run: as §1

DO4 melanoma cells = test: Cell survival assay (SRB)
How it was run: (§2)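 Read-out: protein-bound sulforhodamine B, A564, after fixation and Tris solubilisation. Cells at 5×10^3 per well got a 24-hour compound treatment, then fresh medium for 72 hours.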

SkMel28 melanoma cells = test: Cell survival assay (SRB)
How it was run: as §2

A2058 cells = test: Cell survival assay (SRB)
Description: (§3) Cell Lines and Culture Medium. All cell lines used in this study have been described previously (Parsons et al., 1986; Todaro et al., 1980; Glenn et al., 2004). All cell lines were cultured in 10% heat-inactivated foetal calf serum (CSL, Australia) in RPMI 1640 medium supplemented with 100 U/mL penicillin, 100 μg/mL streptomycin, and 3 mM HEPES at 5% CO2, 99% humidity at 37° C. Primary human fibroblasts were obtained from neonatal foreskins and cultured in the above medium. Routine mycoplasma tests were performed using Hoechst stain^i and were always negative.
(§4) Cell Survival Assay. Cells were plated into 96-well microtitre plates at 5×10^3 cells/well, and allowed to adhere overnight. Test compounds were added to culture medium at the indicated concentrations, and plates incubated in the above conditions for 24 hours. Following this incubation period, compounds and media were removed, and replaced with fresh culture medium. Cells were then grown for a further 72 hours before assay using sulforhodamine B (SRB; Sigma, St. Louis, Mo.) as previously described. Briefly, the culture medium was removed from the 96-well microtitre plates and the plates washed twice with phosphate buffered saline (PBS), before the cells were fixed with methylated spirits for 15 minutes. The plates were then rinsed with tap water and the fixed cells stained with 50 μL/well of SRB solution (0.4% sulforhodamine B (w/v) in 1% (v/v) acetic acid) over a period of 1 hour. The SRB solution was then removed from the wells and the plates rapidly washed two times with 1% (v/v) acetic acid. Protein bound dye was then solubilised with the addition of 100 μL of 10 mM unbuffered Tris, and incubated for 15 min at 25° C. Plates were then read at 564 nm on a VERSA max tunable microplate reader (Molecular Devices, Sunnyvale, Calif.).

AF-6 cells = test: Cell survival assay (SRB)
Description: as §3, §4

AO7 RM cells = test: Cell survival assay (SRB)
Description: as §3, §4

D11 melanoma cells = test: Cell survival assay (SRB)
Description: as §3, §4

D14 melanoma cells = test: Cell survival assay (SRB)
Description: as §3, §4

D17 melanoma cells = test: Cell survival assay (SRB)
Description: as §3, §4

HeLa cells = test: Cell survival assay (SRB)
Description: as §3, §4

LSP M2 cells = test: Cell survival assay (SRB)
Description: as §3, §4

MM229 melanoma cells = test: Cell survival assay (SRB)
Description: as §3, §4

MM329 melanoma cells = test: Cell survival assay (SRB)
Description: as §3, §4

MM470 melanoma cells = test: Cell survival assay (SRB)
Description: as §3, §4

MM604 melanoma cells = test: Cell survival assay (SRB)
Description: as §3, §4

Mel FH melanoma cells = test: Cell survival assay (SRB)
Description: as §3, §4

Mel RM melanoma cells = test: Cell survival assay (SRB)
Description: as §3, §4

[2] = Table 11, IC50 (NFF)/IC50(cancer cell line)
[3] = Homo sapiens, Table 11, antiproliferative potency

CN(C)c1ccc(C(=O)N[C@@H](CCCCCC(=O)NO)C(=O)NCc2ccccc2)cc1 (racemic) [Example 124]
IC50 ([1]; NFF normal fibroblasts, 24 h with compound, further 72 h growth, SRB, read-out: IC50 (uM) NFF): 0.87 ± 0.07 µM | IC50 ([1]; Table 11, antiproliferative potency, read-out: IC50 (μM) NFF): 0.87 ± 0.07 µM | IC50 (MM96L melanoma cells; MM96L melanoma, 24 h with compound, further 72 h growth, SRB, read-out: IC50 (uM) MM96L): 0.13 ± 0.02 µM | IC50 (MM96L melanoma cells; Table 11, antiproliferative potency, read-out: IC50 (μM) MM96L): 0.13 ± 0.02 µM | IC50 (MM96L melanoma cells; most preferred compounds, exemplary examples, read-out: potency of IC50 against the MM96 melanoma cells): ≤ 0.5 µM | SI (Selectivity Index = IC50 (NFF)/IC50 (MM96L)) (MM96L melanoma cells; NFF vs MM96L): 6.7 | Selectivity MM96L (MM96L melanoma cells; [2]): 6.7 | IC50 (DO4 melanoma cells; Homo sapiens, DO4, Table 11, antiproliferative potency, read-out: IC50 (μM) DO4): 0.12 ± 0.03 µM | Selectivity DO4 (DO4 melanoma cells; [2]): 7 | IC50 (SkMel28 melanoma cells; Homo sapiens, SK-MEL-28, Table 11, antiproliferative potency, read-out: IC50 (μM) SK Mel 28): 0.06 ± 0.04 µM | Selectivity SK Mel 28 (SkMel28 melanoma cells; [2]): 15 | IC50 (A2058 cells; Homo sapiens, A2058, Table 11, antiproliferative potency): 0.1 ± 0.02 µM | Selectivity A2058 (A2058 cells; [2]): 9 | IC50 (AF-6 cells; [3]): 0.3 ± 0.03 µM | Selectivity AF-6 (AF-6 cells; [2]): 3 | IC50 (AO7 RM cells; [3]): 0.18 ± 0.07 µM | Selectivity AO7 RM (AO7 RM cells; [2]): 5 | IC50 (D11 melanoma cells; [3]): 0.3 ± 0.2 µM | Selectivity D11 (D11 melanoma cells; [2]): 3 | IC50 (D14 melanoma cells; [3]): 0.26 ± 0.08 µM | Selectivity D14 (D14 melanoma cells; [2]): 3 | IC50 (D17 melanoma cells; Homo sapiens, D17, Table 11, antiproliferative potency): 0.06 ± 0.02 µM | Selectivity D17 (D17 melanoma cells; [2]): 15 | IC50 (HeLa cells; [3]): 0.09 ± 0.01 µM | Selectivity HeLa (HeLa cells; [2]): 10 | IC50 (LSP M2 cells; [3]): 0.45 ± 0.05 µM | Selectivity LSP M2 (LSP M2 cells; [2]): 2 | IC50 (MM229 melanoma cells; [3]): 0.6 ± 0.08 µM | Selectivity MM229 (MM229 melanoma cells; [2]): 1.5 | IC50 (MM329 melanoma cells; [3]): 0.06 ± 0.04 µM | Selectivity MM329 (MM329 melanoma cells; [2]): 15 | IC50 (MM470 melanoma cells; [3]): 0.09 ± 0.07 µM | Selectivity MM470 (MM470 melanoma cells; [2]): 10 | IC50 (MM604 melanoma cells; [3]): 0.01 ± 0.01 µM | Selectivity MM604 (MM604 melanoma cells; [2]): 87 | IC50 (Mel FH melanoma cells; [3]): 0.08 ± 0.04 µM | Selectivity Mel FH (Mel FH melanoma cells; [2]): 11 | IC50 (Mel RM melanoma cells; [3]): 0.95 ± 0.07 µM | Selectivity Mel RM (Mel RM melanoma cells; [2]): 0.9
